Test: Stability investigation: properties (appearance) of the injection solutions
Format: physicochemical
Settings: pH of the injectable composition 2.0
Protocol: The compound represented by formula II and the stabilizer were weighed and dissolved in 90% of a prescribed amount of water for injection. The pH of the solution was adjusted with hydrochloric acid, and then water for injection was added to the full amount. The solution was filled up to 2 mL, and was flushed with nitrogen before and after filling and sealing. The solution was sterilized at 121° C. for 15 minutes to obtain the composition. […] The changes of impurities were detected by high-performance liquid chromatography (HPLC). The analytical method used to detect the impurity content was as follows:
The compound represented by formula II and disodium edetate or calcium disodium edetate were weighed and dissolved in 90% of a prescribed amount of water for injection. The pH of the solution was adjusted with hydrochloric acid, and then water for injection was added to the full amount. The solution was filled in a 2 mL ampoule, and was flushed with nitrogen before and after filling and sealing. The sample was sterilized at 121° C. for 15 minutes to obtain the composition. The compositions were placed under conditions including a high temperature of 60° C. and illumination at 5000 Lx for stability investigation, to determine the properties of the injection solutions and the changes of impurities.

Solubility (in words): reduced solubility
SMILES: CNCc1cc(-c2ccccc2F)n(S(=O)(=O)c2cccc(OCCCOC)c2)c1.Cl [compound represented by formula II]

Source: patent US20260283941A1, “PHARMACEUTICAL COMPOSITION CONTAINING PYRROLE GASTRIC ACID SECRETION INHIBITOR AND PREPARATION METHOD THEREFOR” (JIANGSU CAREPHAR PHARMACEUTICAL CO., LTD., priority 2022, published 2026)
